Measured values: US20240188613A1, “SWEETENER COMPOSITIONS COMPRISING MOGROSIDES AND USES THEREOF” (Firmenich Incorporated, priority 2021, published 2024)

Columns and labels:
Assay type in all cases: in vivo, human
[1] = Additional sensory testing for lemon-flavored (lemon-lime) beverage (panel of flavorists); conditions: 600 ppm mogrosides, 0 to 10 scale, letter in parentheses = Duncan's test group
Method: (§1) A panel of flavorists at three locations evaluated lemon-lime beverage various mogrosides at a concentration of 600 ppm mogrosides for in-mouth attributes (peak sweetness, upfront sweetness, bitterness, and mouthfeel/thickness) and aftertaste attributes (sweet taste linger), on a 0 to 10 scale. The in-mouth attributes were evaluated while holding the sample in the mouth, while the aftertaste attributes were evaluated after expectoration.

[2] = Expert panelists' comparison of mogrosides with Stevia; conditions: "Examples 4 and 5", in words
[3] = Sensory testing for lemon-lime carbonated soft drink (panel of volunteers)
Method: (§2) A panel of volunteers evaluated isomogroside IVE for in-mouth attributes (sweetness, delayed sweetness, sourness, bitterness, global flavor intensity, thickness/body, and astringence) and aftertaste (AT) attribtues (lingering sweetness, overall off-taste intensity, licorice off-tast, bitterness off-taste, and mouth coating) on a 10-point scale. Two replicate sessions were conducted, with a 20 minute break between sessions. There was a 90 second delay between samples within a session. Panelists evaluated all samples in a first session and evaluated the samples again a second time in a second session. Control samples of Rebaudioside M (Reb M) were evaluated during all sessions as a control. Mogroside V was also evaluated and sensory data for mogroside V is provided.
(§3) Data analysis was performed using 2-way analysis of variance (ANOVA) with interaction using Tukey's HSD test. The data was normalized for each attribute according to average scores for Reb M.
A panel of volunteers evaluated the isomogroside IVE-containing lemon-lime carbonated soft drink for in-mouth attributes and aftertaste attributes according to the methods described in Example 1 above.

[4] = Additional sensory testing for vanilla milk (panel of flavorists); conditions: 400 ppm mogrosides, 0 to 10 scale, letter in parentheses = Duncan's test group
Method: as §1, with “vanilla milk containing” for “lemon-lime beverage”, “400” for “600”, “expectoration. The data was analyzed using Duncan's new multiple range test and the scores are provided in the data below in parentheses.” for “expectoration.”

[5] = Sensory testing for sparkling orange beverage (panel of volunteers)
Method: as §2, §3
A panel of volunteers evaluated a sparkling orange beverage containing isomogroside IVE for in-mouth attributes and aftertaste attributes according to the methods described in Example 1 above.

[6] = Sensory testing for vanilla milk (panel of volunteers); conditions: for Licorice Aftertaste / Lingering Sweetness / Mouth Coating / Overall Off-Taste: aftertaste
Method: as §2, §3
A panel of volunteers evaluated vanilla milk containing isomogroside IVE for in-mouth attributes and aftertaste attributes according to the methods described in Example 1 above.

[7] = Sensory testing for apple drink (panel of volunteers); conditions: for Bitterness / Delayed Sweetness / Global Flavor Intensity / Sweetness / Thickness/Body: in-mouth, normalized to Reb M
Method: as §2, §3

[8] = 600 ppm (mogroside V 600 mg [sic]), aftertaste, 10-point scale, normalized
[9] = 600 ppm (mogroside V 600 mg [sic]), in-mouth, 10-point scale, normalized
[10] = 250 ppm (mogroside V 250 mg [sic]), aftertaste, 10-point scale, normalized
[11] = 250 ppm (mogroside V 250 mg [sic]), in-mouth, 10-point scale, normalized
[12] = 200 ppm (mogroside V 200 mg [sic]), 10-point scale, normalized
[13] = 200 ppm (mogroside V 200 mg [sic]), in-mouth, 10-point scale, normalized
[14] = 400 ppm (mogroside V 400 mg [sic]), 10-point scale, normalized
[15] = 400 ppm (mogroside V 400 mg [sic]), in-mouth, 10-point scale, normalized
[16] = 250 ppm (mogroside V 250 mg [sic]), aftertaste, 10-point scale
[17] = 250 ppm (mogroside V 250 mg [sic]), 10-point scale
[18] = 500 ppm (mogroside V 500 mg [sic]), aftertaste, 10-point scale
[19] = 500 ppm (mogroside V 500 mg [sic]), 10-point scale
[20] = same concentration of Reb M, in words

Question: What does the source list for C[C@H](CC[C@@H](O[C@@H]1O[C@H](CO)[C@@H](O)[C@H](O)[C@H]1O[C@@H]1O[C@H](CO)[C@@H](O)[C@H](O)[C@H]1O)C(C)(C)O)[C@@]1(C)CC[C@@]2(C)[C@@H]3CC=C4[C@@H](CC[C@H](O[C@@H]5O[C@H](CO)[C@@H](O[C@@H]6O[C@H](CO)[C@@H](O)[C@H](O)[C@H]6O)[C@H](O)[C@H]5O)C4(C)C)[C@]3(C)[C@H](O)C[C@@]21C [isomogroside IVE]?
Answer: Sweet Linger ([1]; aftertaste after expectoration): 3.429 (c); Bitterness ([1]; in-mouth): 1.857 (a); Mouthfeel/Thickness ([1]; in-mouth): 2.714 (b); Peak Sweetness ([1]; in-mouth): 4.857 (c); Upfront Sweetness ([1]; in-mouth): 3.571 (b); Bitter aftertaste compared with Stevia [2]: lower bitter aftertaste; Licorice aftertaste compared with Stevia [2]: lower licorice aftertaste; Mouthfeel compared with Stevia [2]: better mouthfeel; Bitterness Aftertaste [3, 8]: 1.8; Licorice Aftertaste [3, 8]: 2.9; Lingering Sweetness [3, 8]: 4.2; Overall Off-Taste [3, 8]: 3.8; Bitterness [3, 9]: 2.2; Delayed Sweetness [3, 9]: 3.5; Global Flavor Intensity [3, 9]: 5.0; Sweetness [3, 9]: 5.0; Sweetness compared with Reb M ([3]; 600 ppm, in words): overall lower sweetness; Global flavor intensity compared with mogroside V ([3]; in words): higher global flavor intensity; Sweetness compared with mogroside V ([3]; in words): comparable sweetness; Sweet Linger ([4]; aftertaste after expectoration): 4.563 (b); Bitterness ([4]; in-mouth): 1.313 (ab); Mouthfeel/Thickness ([4]; in-mouth): 4.125 (b); Peak Sweetness ([4]; in-mouth): 5.938 (c); Upfront Sweetness ([4]; in-mouth): 5.125 (b); Licorice Aftertaste [5, 10]: 2.1; Lingering Sweetness [5, 10]: 3.9; Mouth Coating [5, 10]: 1.9; Overall Off-Taste [5, 10]: 3.3; Delayed Sweetness [5, 11]: 3.5; Sweetness [5, 11]: 4.9; Delayed sweetness compared with Reb M ([5]; 250 ppm, in words): slightly increased delayed sweetness; Sweetness compared with Reb M ([5]; 250 ppm, in words): overall lower sweetness; Licorice Aftertaste [6, 12]: 0.8; Lingering Sweetness [6, 12]: 2.6; Mouth Coating [6, 12]: 2.9; Overall Off-Taste [6, 12]: 2.1; Astringence [6, 13]: 0.5; Delayed Sweetness [6, 13]: 1.7; Fattiness [6, 13]: 2.9; Sourness [6, 13]: 0.5; Sweetness [6, 13]: 5.1; Licorice Aftertaste [6, 14]: 1.4; Lingering Sweetness [6, 14]: 3.7; Mouth Coating [6, 14]: 0.9; Overall Off-Taste [6, 14]: 2.0; Astringence [6, 15]: 0.7; Bitterness [6, 15]: 1.0; Delayed Sweetness [6, 15]: 2.5; Fattiness [6, 15]: 3.9; Global Flavor Intensity [6, 15]: 4.6; Sourness [6, 15]: 0.8; Sweetness [6, 15]: 6.8; Bitterness compared with mogroside V ([6]; at 400 ppm, in words): lower bitterness; Fattiness compared with mogroside V ([6]; at 400 ppm, in words): higher; Global flavor intensity compared with mogroside V ([6]; at 400 ppm, in words): higher; Sweetness compared with Reb M ([6]; at both 200 ppm and 400 ppm, in words): increased sweetness; Sweetness compared with mogroside V ([6]; in words): higher sweetness; Bitterness Aftertaste [7, 16]: 1.5; Licorice Aftertaste [7, 16]: 2.4; Lingering Sweetness [7, 16]: 3.0; Overall Off-Taste [7, 16]: 3.2; Bitterness [7, 17]: 1.4; Delayed Sweetness [7, 17]: 2.1; Global Flavor Intensity [7, 17]: 3.3; Sweetness [7, 17]: 3.9; Thickness/Body [7, 17]: 1.6; Licorice Aftertaste [7, 18]: 2.2; Lingering Sweetness [7, 18]: 3.4; Mouth Coating [7, 18]: 2.0; Overall Off-Taste [7, 18]: 3.1; Bitterness [7, 19]: 1.9; Delayed Sweetness [7, 19]: 2.6; Global Flavor Intensity [7, 19]: 3.5; Sweetness [7, 19]: 4.5; Thickness/Body [7, 19]: 1.6; Overall off-taste compared with mogroside V ([7]; aftertaste, in words): lower overall off-taste; Lingering sweetness aftertaste compared with Reb M ([7]; at both 250 ppm and 500 ppm, in words): significantly improved; Bitterness compared with mogroside V ([7]; in words): lower bitterness; Global flavor intensity compared with mogroside V ([7]; in words): higher; Sweetness compared with mogroside V ([7]; in words): higher sweetness; Thickness/body compared with mogroside V ([7]; in words): higher thickness/body; Global flavor intensity compared with Reb M [7, 20]: lower global flavor intensity; Sweetness compared with Reb M [7, 20]: somewhat less sweet
